In US7138530B2, “Thiophene amidines, compositions thereof, and methods of treating complement-mediated diseases and conditions” (3-Dimensional Pharmaceuticals, Inc., priority 2002, dated 2006):

Target: T1, activated human C1s (Homo sapiens, UniProt P09871)
T1 construct: purchased Calbiochem (La Jolla, Calif.)
T1 sequence (P09871 438-688 limits assumed): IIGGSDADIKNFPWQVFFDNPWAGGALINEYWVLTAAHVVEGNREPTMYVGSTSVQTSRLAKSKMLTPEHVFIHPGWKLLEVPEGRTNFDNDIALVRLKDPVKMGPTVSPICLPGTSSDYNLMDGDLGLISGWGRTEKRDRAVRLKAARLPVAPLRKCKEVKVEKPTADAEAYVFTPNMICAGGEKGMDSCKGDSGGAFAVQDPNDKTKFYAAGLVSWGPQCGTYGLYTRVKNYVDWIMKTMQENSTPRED
T1 sequence (P09871 16-437 partner limits assumed): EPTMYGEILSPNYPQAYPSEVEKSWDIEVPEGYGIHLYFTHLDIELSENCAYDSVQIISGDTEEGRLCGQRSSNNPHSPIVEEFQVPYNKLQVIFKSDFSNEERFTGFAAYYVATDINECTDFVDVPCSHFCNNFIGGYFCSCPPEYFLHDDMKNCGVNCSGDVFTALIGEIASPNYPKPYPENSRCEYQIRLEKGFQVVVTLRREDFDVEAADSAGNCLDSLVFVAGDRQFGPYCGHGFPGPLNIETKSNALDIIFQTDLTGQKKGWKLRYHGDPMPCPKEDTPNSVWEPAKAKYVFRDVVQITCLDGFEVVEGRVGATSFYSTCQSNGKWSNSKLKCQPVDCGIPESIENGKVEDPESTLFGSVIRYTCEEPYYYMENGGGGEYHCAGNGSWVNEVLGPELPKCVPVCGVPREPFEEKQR
Assay: In vitro inhibition of C1s: Ki determination, C1s-catalyzed hydrolysis of Z-Gly-Arg-S-Bzl detected with DTNB
Type: biochemical
Details: purified activated human C1s 2.3 nM, Z-Gly-Arg-S-Bzl 45 μM, DTNB 200 μM, pH 7.5, 37° C., absorbance at 405 nm
Method: Reagents: All buffer salts were obtained from Sigma Chemical Company (St. Louis, Mo.), and were of the highest purity available. DTNB was purchased from Pierce (Rockford, Ill.). Z-Gly-Arg-S-Bzl was purchased from Enzyme Systems Products (Livermore, Calif.). Activated human C1s was purchased from Calbiochem (La Jolla, Calif.).
Test compounds are prepared as a 10 μM solution in DMSO. Dilutions are prepared in DMSO yielding 7 final concentrations encompassing a 700-fold concentration range.
Reactions were initiated by the addition of a 10 μL aliquot of the enzyme, and the absorbance increase at 405 nm is continuously recorded for 15 minutes in a Molecular Devices plate reader. Final DMSO concentration was 4.3%. […] The ratio of the velocity (rate of change in absorbance as a function of time) for a sample containing no test compound is divided by the velocity of a sample containing test compound, and is plotted as a function of test compound concentration. The data are fit to a linear regression, and the value of the slope of the line calculated. The inverse of the slope is the experimentally determined Ki value.

Ki | SMILES
6 to 23 nM | CSc1sc(C(=N)N)cc1S(=O)(=O)c1cccc(-c2c(C)cc(NC(=N)N)cc2NC(=O)NCCCCCC(=O)O)c1 [Example 259]
6 to 23 nM | CSc1sc(C(=N)NC(=O)OC(C)(C)C)cc1S(=O)(=O)c1cccc(-c2ccc(S(C)(=O)=O)cc2)c1 [Example 57, {Imino-[4-(4′-methanesulfonyl-biphenyl-3-sulfonyl)-5-methylsulfanyl-thiophen-2-yl]-methyl}-carbamic acid tert-butyl ester]
6 to 23 nM | CSc1sc(C(=N)N)cc1S(=O)(=O)c1cccc(-c2ccsc2)c1 [Example 77, 5-Methylsulfanyl-4-(3-thiophen-3-yl-benzenesulfonyl)-thiophene-2-carboxamidine]
